Data on three compounds can be found in patent US7897772B2, “Acid addition salt of irinotecan” (priority 2004, dated 2011).

The structures appear in SMILES notation. Counter-ions that a name gives are not always drawn.

Data set [1] in a line: Dissolution of 100 mg/mL salt suspensions on heating and later crystal deposition at 25° C. (Example 2). It is filed as physicochemical. The settings on record: for Dissolution on heating: 100 mg/mL. The procedure: The thus-produced irinotecan nitric acid addition salt solution was stirred at 25° C. After stirring of the solution for about 42 hours, crystals of the irinotecan nitric acid addition salt were deposited.

The nature of data set [2]: Dissolution of irinotecan acid addition salts in water at 100 mg/mL at room temperature and state of the solution after 6 days of stirring (Example 1). It is filed as physicochemical. The settings on record: for Dissolution of the salt in water at room temperature: salt content adjusted to 100 mg/mL, no heating; for State of the Solution after Day 6 (footnote symbol: salt not dissolved): 100 mg/mL in water at room temperature. The method, then:
To an aqueous suspension of irinotecan (1-ethyl-10-[4-(1-piperidino)-1-piperidino]carbonyloxycamptothecin) produced through the method disclosed in Patent Document 1, each acid species was added, to thereby produce a corresponding irinotecan acid addition salt. The irinotecan acid addition salt content was adjusted to 100 mg/mL. […] Each of the aqueous solutions employing sulfuric acid, phosphoric acid methanesulfonic acid, citric acid, maleic acid, and succinic acid, respectively, was filtered by a membrane filter, and the filtrate was stirred at room temperature (25° C.). After continuous stirring for 6 days, the aqueous solution was visually observed so as to evaluate the state of the solution.

The mark [3] stands for this setting: stirred at 100° C. for 30 minutes.

On to `CCc1c2c(nc3ccc(OC(=O)N4CCC(N5CCCCC5)CC4)cc13)-c1cc3c(c(=O)n1C2)COC(=O)[C@]3(O)CC` [Irinotecan acetic acid addition salt, reference compound], for which the Dissolution on heating result in data set [1] (setting [3]) is reported as “maintained undissolved”. Besides, the “Dissolution of the salt in water at room temperature” value (“Dissolution of the salt in water” below) in data set [2] (listed as acetic acid) was “not dissolved in water at room temperature”.
In the case of `Br.CCc1c2c(nc3ccc(OC(=O)N4CCC(N5CCCCC5)CC4)cc13)-c1cc3c(c(=O)n1C2)COC(=O)C3(O)CC` (stereo not drawn) [Irinotecan hydrobromic acid addition salt, reference compound], the Dissolution on heating entry in data set [1] (setting [3]) is given as “maintained undissolved”. Moreover, in data set [2], the “State of the Solution after Day 6 (footnote symbol: salt not dissolved)” value is reported as “*1” and the “Dissolution of the salt in water” value is “not dissolved in water at room temperature”.
As for `CCc1c2c(nc3ccc(OC(=O)N4CCC(N5CCCCC5)CC4)cc13)-c1cc3c(c(=O)n1C2)COC(=O)[C@]3(O)CC` [Irinotecan nitric acid addition salt, irinotecan nitric acid salt], the “Stirring time after which crystals were deposited” value in data set [1] (100 mg/mL solution dissolved by heating, then stirred at 25° C.) is “about 42 hours”. Further, the Dissolution on heating result in data set [1] (70° C. under stirring for three minutes) is reported as “completely dissolved”. In addition, the “State of the Solution after Day 6 (footnote symbol: salt not dissolved)” value in data set [2] is on record as “*1”. Moreover, in data set [2] (listed as nitric acid), the “Dissolution of the salt in water” value is reported as “not dissolved in water at room temperature”.
